Experimental data: patent publication US6576648B2, “Compound with growth hormone releasing properties” (Novo Nordisk A/S, priority 1999, dated 2003)
Non-standard residues stand in square brackets, D forms with d. Residues, ends and D or L forms follow the SMILES beside them.

Columns and labels:
[1] = Oral bioavailability, pharmacokinetics in fasted Beagle dogs; type: in vivo; conditions: intravenous and oral administration in 5% glucose solution
Protocol: The pharmacokinetics of the compound can be investigated in fasted Beagle dogs.
Intravenous and oral administration of the test compound, in 5% glucose solution, was separated by a one weeks washout.
Blood samples were collected immediately before drug administration (time zero) and than 0.08, 0.25, 0.50, 0.75, 1.0, 1.5, 2.0, 3.0, 4.0, 5.0, and 6.0 hours after administration.
The plasma samples were stored frozen (<−18° C.) pending analysis.
An HPLC method with solid phase extraction and UV detection was used for the quantification of the compound in plasma.
The pharmacokinetic parameters for compounds were calculated by non-compartmental methods using the PC based pharmacokinetic software WinNonlin, version 1.1 (Scientific Consulting Inc., Apex, N.C., USA).

[2] = test system: endogenous growth hormone release; assay: Release of endogenous growth hormone in vivo
[3] = test system: Carboxypeptidase mix: carboxypeptidase Y and B; assay: Metabolic stability in carboxypeptidase mix (ESMS, SIM of molecular ion); conditions: carboxypeptidase Y and B 0.025 mg/ml, 50 mM ammoniumacetate pH 4.5, 37° C., 24 h, decrease in SIM signal
Protocol: (§1) The compound is dissolved at a concentration of 1 mg/ml in water. 25 ml of this solution is added to 175 ml of the respective enzyme-solution (resulting in an enzyme:substrate ratio (w/w) of approximately 1:5). The solution is left at 37° C. overnight. 10 ml of the various degradation solutions is analyzed against a corresponding zero-sample using flow injection electrospray mass spectrometry (ESMS) with selected ion monitoring of the molecular ion. If the signal has decreased more than 20% compared to the zero-sample, the remainder of the solution is analyzed by HPLC and mass spectrometry in order to identify the extent and site(s) of degradation precisely.
(§2) Enzymes (trypsin, chymotrypsin, elastase aminopeptidase M and carboxypeptidase Y and B) were all purchased from Boehringer Mannheim GmbH (Mannheim, Germany) […]
(§3) Quantification of the compound (before and after degradation) was done on the API III instrument using single ion monitoring of the molecular ion in question with flow injection of the analyte. […]
(§4) Identification of degradation products furthermore involved the use of plasma desorption mass spectrometry (PDMS) with sample application on nitrocellulose coated targets and standard instrumental settings. The accuracy of the hereby determined masses is generally better than 0.1%. […]

[4] = test system: Pancreatic enzyme mix: trypsin, chymotrypsin and elastase; assay: Metabolic stability in pancreatic enzyme mix (ESMS, SIM of molecular ion); conditions: chymotrypsin and elastase 0.025 mg/ml, 100 mM ammoniumbicarbonate pH 8.0, 37° C., 24 h, decrease in SIM signal
Protocol: as §1, §2, §3, §4

oral availability [1]	Compound	ability to release endogenous growth hormone in vivo [2]	Stability in Carboxypeptidase mix [3]	Stability in Pan. Enzyme mix [4]
about 50%	CN(C)N(C)C(=O)[C@@]1(Cc2ccccc2)CCCN(C(=O)[C@@H](Cc2c[nH]c3ccccc23)NC(=O)C(C)(C)N)C1 [Example 1, 2-Amino-N-[(1R)-2-[(3R)-3-benzyl-3-(N,N′,N′-trimethylhydrazinocarbonyl)piperidin-1-yl]-1-(1H-indol-3-ylmethyl)-2-oxoethyl]-2-methylpropionamide]	possess the ability to release endogenous growth hormone in vivo	–	–
–	C[C@H](NC(=O)[C@@H](Cc1c[nH]c2ccccc12)NC(=O)[C@@H](N)Cc1c[nH]cn1)C(=O)N[C@@H](Cc1c[nH]c2ccccc12)C(=O)N[C@H](Cc1ccccc1)C(=O)N[C@@H](CCCCN)C(N)=O [GHRP-6] (H-H[dW]AW[dF]K-NH2)	–	− (Unstable (more than 20% decrease in SIM signal after 24 h in degradation solution))	− (Unstable (more than 20% decrease in SIM signal after 24 h in degradation solution))
–	GHRP-2	–	− (Unstable (more than 20% decrease in SIM signal after 24 h in degradation solution))	− (Unstable (more than 20% decrease in SIM signal after 24 h in degradation solution))
